In patent US20080031950A1, “Novel anelgesic combination” (NECTID INC., priority 2007, published 2008):
Where a name gives a salt, the structure may show the parent alone.

Test system: patients suffering from Chronic non-cancer pain (CNCP)
Experiment: Controlled human clinical trial, pain scored by visual analogue scale (VAS)
Format: in vivo
Conditions: mean ± SD, N = 10
Experimental: A typical study determined the efficacy of tramadol and […] as monotherapy and a combination of naproxen and a slow release tramadol for the treatment of pain and pain related conditions
• Tramadol hydrochloride: Generic Tramadol Hydrochloride tablets 50 mg, • Naproxen: Generic Neproxen tablets 250 mg • Slow Release Tramadol Hydrochloride: a) Example 1, b) Ultram ER 100 mg
• Treatment Drugs per day per patient • 1. Treatment A; Tramadol hydrochloride 100 mg • 2. Treatment B: Naproxen 250 mg • 3. Treatment C: Example 1 • 4. Treatment D: Ultram ER 100 mg+Naproxen 250 mg • 5. Treatment E: Example 2
The administered dosage comprised either tramadol hydrochloride (100 mg) or naproxen 250 mg or a combination of naproxen (250 mg) and slow release tramadol hydrochloride (100 mg) selected from Treatments D or a combination of naproxen 250 mg and a slow release tramadol 100 mg (Treatment C) was administered once a day to the patients in a long-term clinical trial.
40 patients were used in a clinical trial were suffering from Chronic non-cancer pain (CNCP), defined as pain for longer than 6 months, including neuropathic pain, osteoarthritis, rheumatoid arthritis, fibromyalgia, and back and musculoskeletal pain were included in the clinical trial. No effort was made to segregate the patients based on the type of pain nor did we evaluate the extent of pain relief on the basis of pain type.
Those patients with migraines, dental pain, abdominal pains (from chronic pancreatitis, kidney stones, etc.) and ischemic pain from vascular disease were excluded because they are usually not classified as CNCP. Patients with history of addiction (alcohol or drugs) were excluded from the trials
Randomization was performed with computer-generated random numbers in blocks of 10. Randomization codes of the monotherapy or combination therapy treatments were placed in sequentially numbered, opaque, sealed envelopes in the biopsy center.
Pain was assessed using a visual analogue scale (VAS) graded from 0-100 mm. Pain scoring was performed every three hours after drug administration for a total of 48 hours.
The patients were taught with a standard method by the physician how to use a VAS scoring from 0 to 100 mm to grade the intensity of pain experienced during the treatment. On that scale, the left endpoint, 0, was defined as no pain and the right endpoint 100, as the worst pain the patient could imagine. There were no further marks on the line. The intensity of pain was indicated by the distance in millimeters from the left end. Patients were asked to grade the pain intensity immediately after the administration of drugs and every three hour after for 24 hours by drawing a vertical line over each VAS line. The doctors who prescribed the medicines obtained all the VAS forms for that specific patient.
Data are expressed as means±SD. Differences in VAS were analyzed with use of the unpaired Student t test and differences in pain score reductions between the two groups were analyzed with use of the Mann-Whitney U test for the median difference. Similar statistical tests were used for between group comparisons of other outcome variables as appropriate. A two tailed P value of less than. […] SAS software was used for the statistical analysis.
We considered that a clinically significant benefit of using […] and slow release tramadol would be a reduction in the pain score (VAS) of at least 15% compared to the monotherapy with either tramadol hydrochloride or naproxen or placebo. Alternatively, the dose reduction of at least 15% of either NSAID or tramadol when used as combination over the monotherapy as significant benefit

[1] = VAS time 0 hours, scale 0-100 mm

COc1cccc([C@@]2(O)CCCC[C@@H]2CN(C)C)c1 (racemic) [Treatment A, (±) cis-2-[(dimethylamino)methyl]-1-(3-methoxyphenyl)cyclo-hexanol hydrochloride]
Pain scored by VAS [1]: 32.4 ± 21.2 mm | Pain scored by VAS (VAS time 3 hours): 23.1 ± 20.1 mm | Pain scored by VAS (VAS time 6 hours): 18.8 ± 20.6 mm | Pain scored by VAS (VAS time 9 hours): 14.9 ± 17.2 mm | Pain scored by VAS (VAS time 12 hours): 13.1 ± 21.2 mm | Pain scored by VAS (VAS time 15 hours): 13.9 ± 19.2 mm | Pain scored by VAS (VAS time 18 hours): 15.4 ± 21.3 mm | Pain scored by VAS (VAS time 21 hours): 14.5 ± 19.2 mm | Pain scored by VAS (VAS time 24 hours): 13.9 ± 19.2 mm

COc1ccc2cc([C@H](C)C(=O)O)ccc2c1 [Treatment B, (+)-(S)-2-(6-methoxynaphthalen-2-yl)propanoic acid]
Pain scored by VAS [1]: 33.9 ± 19.1 mm | Pain scored by VAS (VAS time 3 hours): 18.5 ± 19.1 mm | Pain scored by VAS (VAS time 6 hours): 13.9 ± 21.1 mm | Pain scored by VAS (VAS time 9 hours): 13.8 ± 20.3 mm | Pain scored by VAS (VAS time 12 hours): 14.6 ± 18.6 mm | Pain scored by VAS (VAS time 15 hours): 17.1 ± 21.5 mm | Pain scored by VAS (VAS time 18 hours): 18.9 ± 19.7 mm | Pain scored by VAS (VAS time 21 hours): 20.1 ± 18.3 mm | Pain scored by VAS (VAS time 24 hours): 24.8 ± 20.9 mm
